Experimental data: the NIST ThermoML archive (doi:10.1021/je900725w)

Assays:
[1] = 308.15 K, 101.33 kPa, Liquid
[2] = wn = mass fraction of the nth substance listed; details: 101 kPa, Liquid; for viscosity: Capillary tube (Ostwald / Ubbelohde) method; for mass density: Vibrating tube method
[3] = relative permittivity at zero frequency (dimensionless); wn = mass fraction of the nth substance listed; details: 101 kPa, Liquid, Parallel plate capacitor

CCOCCO [2-ethoxyethan-1-ol]
Details	mass density [kg/m3]
[1]	924.97

Details	viscosity [mPa·s]
[1], Capillary tube (Ostwald / Ubbelohde) method	1.828

CCOCCO [2-ethoxyethan-1-ol] + O
Details	mass density, w1 = 0.25 [kg/m3]	mass density, w1 = 0.4 [kg/m3]	mass density, w1 = 0.5 [kg/m3]	relative permittivity at zero frequency, w1 = 0.25	relative permittivity at zero frequency, w1 = 0.4	relative permittivity at zero frequency, w1 = 0.5	viscosity, w1 = 0.25 [mPa·s]	viscosity, w1 = 0.4 [mPa·s]	viscosity, w1 = 0.5 [mPa·s]
[2], 308.15 K	997.58	997.47	993.61	–	–	–	1.843	1.955	1.923
[2], 313.15 K	992.45	991.01	985.14	–	–	–	1.529	1.702	1.72
[2], 318.15 K	988.07	986.96	980.04	–	–	–	1.274	1.427	1.455
[2], 323.15 K	983.94	983.78	976.1	–	–	–	1.092	1.232	1.276
[3], 308.15 K	–	–	–	60.13	50.54	44.3	–	–	–
[3], 313.15 K	–	–	–	58.7	49.28	43.03	–	–	–
[3], 318.15 K	–	–	–	57.37	48.14	41.95	–	–	–
[3], 323.15 K	–	–	–	56.11	47.1	40.96	–	–	–
